Toxic doses and inconclusive results are not listed.
Test system: P388 leukemia ip, CD2F1 mice, survival T/C
Assay: NCI In Vivo Anticancer Drug Screen. Data for tumor model P388 Leukemia (intraperitoneal) in CD2F1 (CDF1) mice
Settings: endpoint: median survival time, higher = longer survival
Method in brief: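 Mice carrying the transplanted tumor received test compound or vehicle. Survival was recorded in each group, and the value is the treated-group measurement divided by that of the vehicle-treated control group.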

[1] = dose: 50.0 mg/kg/injection, schedule: Q01DX009 (ip), vehicle: saline with Tween-80
[2] = dose: 60.0 mg/kg/injection, schedule: Q01DX005 (ip), vehicle: saline with Tween-80
[3] = dose: 120.0 mg/kg/injection, schedule: Q01DX005 (ip), vehicle: saline with Tween-80
[4] = dose: 240.0 mg/kg/injection, schedule: Q01DX005 (ip), vehicle: saline with Tween-80
[5] = dose: 25.0 mg/kg/injection, schedule: Q01DX009 (ip), vehicle: saline with Tween-80
[6] = dose: 100.0 mg/kg/injection, schedule: Q01DX001 (ip), vehicle: saline
[7] = dose: 200.0 mg/kg/injection, schedule: Q01DX001 (ip), vehicle: saline
[8] = dose: 400.0 mg/kg/injection, schedule: Q01DX001 (ip), vehicle: saline
[9] = dose: 50.0 mg/kg/injection, schedule: Q01DX005 (ip), vehicle: Klucel (hydroxypropylcellulose) (HPC)
[10] = dose: 100.0 mg/kg/injection, schedule: Q01DX005 (ip), vehicle: Klucel (hydroxypropylcellulose) (HPC)
[11] = dose: 200.0 mg/kg/injection, schedule: Q01DX005 (ip), vehicle: Klucel (hydroxypropylcellulose) (HPC)
[12] = dose: 25.0 mg/kg/injection, schedule: Q01DX009 (ip), vehicle: saline
[13] = dose: 50.0 mg/kg/injection, schedule: Q01DX009 (ip), vehicle: saline
[14] = dose: 100.0 mg/kg/injection, schedule: Q01DX009 (ip), vehicle: saline
[15] = dose: 50.0 mg/kg/injection, schedule: Q01DX009 (ip), vehicle: Klucel (hydroxypropylcellulose) (HPC)

Cc1cc([N+](=O)[O-])c(S(N)(=O)=O)c([N+](=O)[O-])c1
T/C (dose: 3.13 mg/kg/injection, schedule: Q01DX009 (ip), vehicle: water): 96 % of control | T/C (dose: 6.25 mg/kg/injection, schedule: Q01DX009 (ip), vehicle: water): 96 % of control | T/C (dose: 12.5 mg/kg/injection, schedule: Q01DX009 (ip), vehicle: water): 99 % of control | T/C (dose: 25.0 mg/kg/injection, schedule: Q01DX009 (ip), vehicle: water): 97 % of control | T/C (dose: 50.0 mg/kg/injection, schedule: Q01DX009 (ip), vehicle: water): 98 % of control

CN(C)c1ccc(-c2nc(-c3ccccc3)c(-c3ccccc3)[nH]2)cc1
T/C [1]: 104 % of control | T/C (dose: 100.0 mg/kg/injection, schedule: Q01DX009 (ip), vehicle: saline with Tween-80): 100 % of control | T/C (dose: 200.0 mg/kg/injection, schedule: Q01DX009 (ip), vehicle: saline with Tween-80): 104 % of control | T/C (dose: 400.0 mg/kg/injection, schedule: Q01DX009 (ip), vehicle: saline with Tween-80): 106 % of control

CC(C)(C)/[N+]([O-])=C/C(c1ccccc1)C(/C=[N+](/[O-])C(C)(C)C)c1ccccc1 (centres undefined)
T/C [2]: 100 % of control | T/C [3]: 98 % of control | T/C [4]: 98 % of control

COC(=O)c1nnn(-c2cccc(C(F)(F)F)c2)c1C(=O)c1ccc(Cl)c(Cl)c1
T/C [2]: 99 % of control | T/C [3]: 100 % of control | T/C [4]: 92 % of control

O=C(Nc1cccc(Br)c1)Oc1cccc2cccnc12
T/C [2]: 105 % of control | T/C [3]: 94 % of control | T/C [4]: 90 % of control

COc1ccc(/C=N\N=C(/[O-])c2ccc(Cl)cc2)cc1.COc1ccc(/C=N\N=C(/[O-])c2ccc(Cl)cc2)cc1.[Ni+2].[OH3+].[OH3+]
T/C (dose: 100.0 mg/kg/injection, schedule: Q04DX002 (ip), vehicle: saline with Tween-80): 92 % of control

COc1cccc2cc(-c3c[nH]c4ccccc34)c(=O)oc12
T/C [2]: 105 % of control | T/C [3]: 98 % of control | T/C [4]: 95 % of control

CCCCc1ccc(N(C)C)cc1
T/C (dose: 12.5 mg/kg/injection, schedule: Q01DX009 (ip), vehicle: saline with Tween-80): 101 % of control | T/C [5]: 110 % of control | T/C [1]: 110 % of control

O=C(O)c1cc(Br)cc(SSc2cc(Br)cc(C(=O)O)c2O)c1O
T/C [1]: 96 % of control

CC(=O)OC1CC2CC1C1C3C=CC(C3)C21 (centres undefined)
T/C [5]: 100 % of control | T/C [1]: 104 % of control | T/C [6]: 100 % of control | T/C [7]: 91 % of control | T/C [8]: 95 % of control

COc1ccc(/C(C#N)=C/c2cc(OC)c(OC)c(OC)c2)cc1
T/C [9]: 105 % of control | T/C [10]: 97 % of control | T/C [11]: 101 % of control

Nc1nc2c(c(=O)[nH]1)CNC2=O
T/C [12]: 112 % of control | T/C [13]: 116 % of control | T/C [14]: 113 % of control

COc1ccc2c(c1)/C(=C/CCN(C)C)c1ccccc1S2
T/C (dose: 12.5 mg/kg/injection, schedule: Q04DX003 (ip), vehicle: saline): 113 % of control | T/C (dose: 25.0 mg/kg/injection, schedule: Q04DX003 (ip), vehicle: saline): 109 % of control

COC(=O)c1c(C)oc2ccccc2c1=O
T/C [9]: 101 % of control | T/C [10]: 103 % of control | T/C [11]: 103 % of control

CNC(=O)OCc1c(COC(=O)NC)c(C)n(-c2ccc(OC)cc2)c1C
T/C (dose: 12.5 mg/kg/injection, schedule: Q01DX009 (ip), vehicle: Klucel (hydroxypropylcellulose) (HPC)): 152 % of control | T/C (dose: 25.0 mg/kg/injection, schedule: Q01DX009 (ip), vehicle: Klucel (hydroxypropylcellulose) (HPC)): 153 % of control | T/C [15]: 171 % of control

CCCCC(O)CNc1ccccc1 (centres undefined)
T/C [2]: 105 % of control | T/C [3]: 99 % of control | T/C [4]: 90 % of control

CSc1ccc2ccccc2c1/C=[N+](/[O-])c1ccccc1
T/C (dose: 60.0 mg/kg/injection, schedule: Q01DX005 (ip), vehicle: Klucel (hydroxypropylcellulose) (HPC)): 95 % of control | T/C (dose: 120.0 mg/kg/injection, schedule: Q01DX005 (ip), vehicle: Klucel (hydroxypropylcellulose) (HPC)): 97 % of control | T/C (dose: 240.0 mg/kg/injection, schedule: Q01DX005 (ip), vehicle: Klucel (hydroxypropylcellulose) (HPC)): 96 % of control

NC(Cc1cnc[nH]1)C(=O)NO (centres undefined)
T/C [6]: 94 % of control | T/C [7]: 102 % of control | T/C [8]: 94 % of control

O=c1cc(O)n(C2=NCCN2)[nH]1
T/C (dose: 60.0 mg/kg/injection, schedule: Q01DX005 (ip), vehicle: suspension in saline): 97 % of control | T/C (dose: 120.0 mg/kg/injection, schedule: Q01DX005 (ip), vehicle: suspension in saline): 97 % of control | T/C (dose: 240.0 mg/kg/injection, schedule: Q01DX005 (ip), vehicle: suspension in saline): 105 % of control

COc1ccc(CC(N)c2ccc(OC)c(OC)c2)cc1O (centres undefined)
T/C [2]: 114 % of control | T/C [3]: 100 % of control | T/C [4]: 97 % of control

COC1=C(C)C(=O)C2=C(C1=O)[C@@H]1[C@@H]3Cc4c(OC(=O)CO)c(C)c(OC)c(O)c4[C@H](CNC(=O)C(C)=O)N3[C@@H](C#N)[C@H](C2)N1C
T/C (dose: 0.63 mg/kg/injection, schedule: Q01DX005 (ip), vehicle: Klucel (hydroxypropylcellulose) (HPC)): 106 % of control | T/C (dose: 1.25 mg/kg/injection, schedule: Q01DX005 (ip), vehicle: Klucel (hydroxypropylcellulose) (HPC)): 115 % of control | T/C (dose: 2.25 mg/kg/injection, schedule: Q01DX005 (ip), vehicle: Klucel (hydroxypropylcellulose) (HPC)): 120 % of control | T/C (dose: 2.5 mg/kg/injection, schedule: Q01DX005 (ip), vehicle: Klucel (hydroxypropylcellulose) (HPC)): 115 % of control | T/C (dose: 625.0 micrograms/kg/injection, schedule: Q01DX005 (ip), vehicle: Klucel (hydroxypropylcellulose) (HPC)): 103 % of control | T/C (dose: 1250.0 micrograms/kg/injection, schedule: Q01DX005 (ip), vehicle: Klucel (hydroxypropylcellulose) (HPC)): 110 % of control | T/C (dose: 2500.0 micrograms/kg/injection, schedule: Q01DX005 (ip), vehicle: Klucel (hydroxypropylcellulose) (HPC)): 116 % of control | T/C (dose: 5000.0 micrograms/kg/injection, schedule: Q01DX005 (ip), vehicle: Klucel (hydroxypropylcellulose) (HPC)): 118 % of control

O=C(O)Cc1cn2cc(Br)cc(Br)c2n1
T/C (dose: 100.0 mg/kg/injection, schedule: Q01DX001 (ip), vehicle: saline with Tween-80): 109 % of control | T/C (dose: 200.0 mg/kg/injection, schedule: Q01DX001 (ip), vehicle: saline with Tween-80): 97 % of control | T/C (dose: 400.0 mg/kg/injection, schedule: Q01DX001 (ip), vehicle: saline with Tween-80): 98 % of control

c1cc2c3c(cccc3c1)-c1nc3c(ccc4ccccc43)nc1-2
T/C [15]: 107 % of control | T/C (dose: 100.0 mg/kg/injection, schedule: Q01DX009 (ip), vehicle: Klucel (hydroxypropylcellulose) (HPC)): 101 % of control | T/C (dose: 200.0 mg/kg/injection, schedule: Q01DX009 (ip), vehicle: Klucel (hydroxypropylcellulose) (HPC)): 93 % of control | T/C (dose: 400.0 mg/kg/injection, schedule: Q01DX009 (ip), vehicle: Klucel (hydroxypropylcellulose) (HPC)): 107 % of control

Cc1cc(Nc2ccc(N(CCCl)CCCl)cc2)c(C)cc1O
T/C (dose: 200.0 mg/kg/injection, schedule: Q04DX003 (ip), vehicle: Klucel (hydroxypropylcellulose) (HPC)): 159 % of control

C(=NCCC[Si]12OCCN(CCO1)CCO2)c1ccc(C=NCCC[Si]23OCCN(CCO2)CCO3)cc1
T/C [9]: 95 % of control | T/C [10]: 97 % of control | T/C [11]: 95 % of control

CNCCc1c(C2[C@@H]3[C@H](C=C(C)CC3(C)C)[C@]34Nc5ccccc5[C@]23CCN4C)[nH]c2ccccc12 (some centres undefined)
T/C (dose: 4.0 mg/kg/injection, schedule: Q01DX009 (ip), vehicle: saline): 100 % of control | T/C (dose: 8.0 mg/kg/injection, schedule: Q01DX009 (ip), vehicle: saline): 94 % of control | T/C (dose: 16.0 mg/kg/injection, schedule: Q01DX009 (ip), vehicle: saline): 103 % of control | T/C (dose: 32.0 mg/kg/injection, schedule: Q01DX009 (ip), vehicle: saline): 100 % of control

CC1=C(C)CP(=O)(c2ccccc2)C1
T/C [12]: 96 % of control | T/C [13]: 93 % of control | T/C [14]: 95 % of control | T/C (dose: 200.0 mg/kg/injection, schedule: Q01DX009 (ip), vehicle: saline): 95 % of control

ClC(Cl)=C(Cl)C(Cl)=C(Cl)Cl
T/C (dose: 50.0 mg/kg/injection, schedule: Q01DX001 (ip), vehicle: saline): 108 % of control | T/C [6]: 100 % of control
